Measurements taken from patent US20230212163A1, “2-(HET)ARYL-SUBSTITUTED CONDENSED HETEROCYCLIC DERIVATIVES AS PEST CONTROL AGENTS” (Bayer Aktiengesellschaft, priority 2020, published 2023).

Tests used:
Assay type in all cases: in vivo
Myzus persicae [1] = assay: Myzus persicae oral test; settings: 120 h, application rate 4 ppm, after 5 days, read-out: efficacy
Method: [table] To produce a suitable active compound formulation, 1 part by weight of active compound is dissolved using the specified parts by weight of solvent and made up with water until the desired concentration is attained. 50 μl of the active compound formulation are transferred into microtitre plates and made up to a final volume of 200 μl with 150 μl of IPL41 insect medium (33%+15% sugar). Subsequently, the plates are sealed with parafilm, which a mixed population of green peach aphids (Myzus persicae) within a second microtitre plate is able to puncture and imbibe the solution through. After 5 days, the efficacy in % is determined. 100% means that all the aphids have been killed; 0% means that no aphids have been killed.

Myzus persicae [2] = assay: Myzus persicae spray test; settings: application rate 100 g/ha, after 5 days
Method: (§1) [table] To produce a suitable active compound formulation, 1 part by weight of active compound is dissolved using the stated parts by weight of solvent and made up with water containing an emulsifier concentration of 1000 ppm until the desired concentration is attained. To produce further test concentrations, the formulation is diluted with emulsifier-containing water. Discs of Chinese cabbage leaves (Brassica pekinensis) infested by all stages of the green peach aphid (Myzus persicae) are sprayed with an active compound formulation of the desired concentration. After 5 days, the efficacy in % is determined. 100% means that all the aphids have been killed; 0% means that no aphids have been killed.

Phaedon cochleariae = Phaedon cochleariae spray test; settings: application rate 100 g/ha, after 7 days
Method: as §1, with “pekinensis)” for “pekinensis) infested by all stages of the green peach aphid (Myzus persicae)”, “concentration and, after drying, populated with larvae of the mustard beetle (Phaedon cochleariae).” for “concentration.”, “7” for “5”, “beetle larvae” for “aphids”

Spodoptera frugiperda [3] = assay: Spodoptera frugiperda spray test (maize leaf discs); settings: Spodoptera frugiperda, foliar, 168 h, application rate 100 g/ha, after 7 days
Method: [table] To produce a suitable active compound formulation, 1 part by weight of active compound is dissolved using the stated parts by weight of solvent and made up with water containing an emulsifier concentration of 1000 ppm until the desired concentration is attained. To produce further test concentrations, the formulation is diluted with emulsifier-containing water. Leaf discs of maize (Zea mays) are sprayed with an active compound formulation of the desired concentration and, after drying, populated with caterpillars of the fall armyworm (Spodoptera frugiperda). After 7 days, the efficacy in % is determined. 100% means that all the caterpillars have been killed; 0% means that no caterpillar has been killed.

Diabrotica balteata = Diabrotica balteata spray test; settings: Diabrotica balteata, 168 h, application rate 100 g/ha, after 7 days
Method: [table] To produce a suitable active compound formulation, 1 part by weight of active compound is dissolved using the stated parts by weight of solvent and made up with water containing an emulsifier concentration of 1000 ppm until the desired concentration is attained. To produce further test concentrations, the formulation is diluted with emulsifier-containing water. Pre-swollen wheat grains (Triticum aestivum) are incubated in a multiwell plate filled with agar and a little water for one day (5 seed grains per cavity). The germinated wheat grains are sprayed with an active compound formulation of the desired concentration. Subsequently, each cavity is infected with 10-20 beetle larvae of Diabrotica balteata. After 7 days, the efficacy in % is determined. 100% means that all wheat plants have grown as in the untreated, uninfected control; 0% means that no wheat plant has grown.

Meloidogyne incognita = Meloidogyne incognita test; settings: application rate 20 ppm, after 14 days
Method: [table] To produce an appropriate active ingredient formulation, 1 part by weight of active ingredient is mixed with the stated amount of solvent and the concentrate is diluted to the desired concentration with water. Vessels are filled with sand, active ingredient solution, an egg/larvae suspension of the southern root-knot nematode (Meloidogyne incognita) and lettuce seeds. The lettuce seeds germinate and the plants develop. The galls develop on the roots. After 14 days, the nematicidal efficacy in % is determined by the formation of galls. 100% means that no galls were found; 0% means that the number of galls on the treated plants corresponds to the untreated control.

Nezara viridula = Nezara viridula spray test; settings: Nezara viridula, 96 h, application rate 500 g/ha, after 4 days
Method: as §1, with “Barley plants (Hordeum vulgare)” for “Discs of Chinese cabbage leaves (Brassica pekinensis) infested by all stages of the green peach aphid (Myzus persicae)”, “concentration and are infected with larvae of the Southern green shield bug (Nezara viridula).” for “concentration.”, “4” for “5”, “all of” for “all”, “shield bugs” for “aphids”, “none of the shield bugs” for “no aphids”

Heliothis armigera = Heliothis armigera spray test (HELIAR), comparative; settings: Helicoverpa armigera, 168 h, 4 ppm, 7 dat, read-out: % efficacy
Method: (§2) [table] To produce a suitable active compound formulation, 1 part by weight of active compound is dissolved using the stated parts by weight of solvent and made up with water containing an emulsifier concentration of 1000 ppm until the desired concentration is attained. To produce further test concentrations, the formulation is diluted with emulsifier-containing water. If the addition of ammonium salts or/and penetrants is required, these are each added in a concentration of 1000 ppm to the formulation solution. Cotton plants (Gossypium hirsutum) are sprayed with an active compound formulation of the desired concentration and, after drying, populated with caterpillars of the cotton bollworm (Heliothis armigera). After the desired time, the kill in % is determined. 100% means that all caterpillars have been killed; 0% means that none of the caterpillars have been killed.

Plutella xylostella = Plutella xylostella spray test (PLUTMA), comparative; settings: 168 h, 4 ppm, 7 dat, read-out: % efficacy
Method: as §2, with “solution. Cabbage leaves (Brassica oleracea)” for “solution. Cotton plants (Gossypium hirsutum)”, “concentration and infected” for “concentration and, after drying, populated”, “with larvae” for “with caterpillars”, “the diamondback moth (Plutella xylostella).” for “the cotton bollworm (Heliothis armigera).”

Spodoptera frugiperda [4] = assay: Spodoptera frugiperda spray test (SPODFR, cotton leaves), comparative; settings: 168 h, 7 dat, read-out: % efficacy
Method: as §2, with “leaves” for “plants”, “and” for “and, after drying,”, “armyworm (Spodoptera frugiperda).” for “cotton bollworm (Heliothis armigera).”

| Structure (SMILES) | pest or weed control at 4 ppm (Myzus persicae [1]) | activity (Myzus persicae [2]) | activity (Phaedon cochleariae) | pest or weed control at 100 g/ha (Spodoptera frugiperda [3]) | pest or weed control at 100 g/ha (Diabrotica balteata) | nematicidal efficacy (formation of galls) (Meloidogyne incognita) | pest or weed control at 500 g/ha (Nezara viridula) | Emax at 4 ppm (Heliothis armigera) | Emax at 4 ppm (Plutella xylostella) | Emax at 0.8 ppm (Spodoptera frugiperda [4]) |
| --- | --- | --- | --- | --- | --- | --- | --- | --- | --- | --- |
| CCS(=O)(=O)c1ccc(-n2ncn(C3CC3)c2=O)nc1-c1nc2cc(S(=O)(=O)C(F)(F)F)ccc2o1 [Example I-03] | 100% | 100% | 100% | 100% | – | – | – | – | – | – |
| CCS(=O)(=O)c1ccc(-n2ncn(-c3ccc(C4(C#N)CC4)cc3)c2=O)nc1-c1nc2cc(S(=O)(=O)C(F)(F)Cl)ccc2o1 [Example I-18] | – | – | – | – | 100% | 100% | – | – | – | – |
| CCS(=O)(=O)c1ccc(-n2ncn(-c3ccc(OC)nc3)c2=O)nc1-c1nc2cc(S(=O)(=O)C(F)(F)F)ccc2o1 [Example I-43] | – | – | – | 83% | 80% | 90% | 90% | – | – | – |
| CCS(=O)(=O)c1ccc(-n2ncn(-c3ccc(F)cc3)c2=O)nc1-c1nc2cc(S(=O)(=O)C(F)(F)F)ccc2o1 [Example I-04] | 100% | – | 100% | 100% | – | – | – | 100% | 100% | 100% |
